Data taken from patent EP0323416A2, “Phenylbenzylidene derivatives of 3-aminopropanesulfonic acid having anticonvulsant activity and pharmaceutical compositions containing same for the therapeutical treatment of epilepsy” (Sigma-Tau Industrie Farmaceutiche Riunite S.p.A., priority 1987, dated 1989).
Marks after values point to notes of the source that are not given here.

Tests used:
[1] = test system: strychnine-induced convulsions; test: Strychnine-induced convulsions test in mice; type: in vivo, male albino Swiss (Charles River) mice
Protocol: (§1) The doses of cardiazol, strychinine, bicuculline and picrotoxin (100 mg/10 ml/kg i.p., 0.73 mg/10 ml/kg s.c., 2.38 mg/10 ml/kg s.c. and 4.42 mg/10 ml/kg s.c. respectively) were chosen in such a way as to provoke death of 50% of the control animals.
(§2) The tests were carried out in male albino Swiss (Charles River) mice weighing 22-24 g which had been kept fasting for 18 hours.
(§3) 100/0 gum arabic suspensions of the compounds under examination were orally administered 60 minutes before the convulsant agent administration.
(§4) As reference substance, 3-APS (200-400-800 mg/10 ml/kg i.p.) was used.

[2] = test system: cardiazol-induced convulsions; test: Cardiazol-induced convulsions test in mice; type: in vivo, male albino Swiss (Charles River) mice
Protocol: as §1, §2, §3, §4

[3] = test system: picrotoxin-induced convulsions; test: Picrotoxin-induced convulsions test in mice; type: in vivo, male albino Swiss (Charles River) mice
Protocol: as §1, §2, §3, §4

[4] = test system: bicuculline-induced convulsions; test: Bicuculline-induced convulsions test in mice; type: in vivo, male albino Swiss (Charles River) mice
Protocol: as §1, §2, §3, §4

[5] = test system: male albino Swiss mice; test: Tolerability test, oral; type: in vivo; conditions: suspension in 10% gum arabic, dose of 3 g/kg, mice fasting for 18 hours
Protocol: The tolerability test was carried out on male albino Swiss mice weighing 22-24 g. The animals, which had been kept fasting for 18 hours, were orally administered a suspension in 10% gum arabic of the compounds ST 505 and ST 512.

[6] = test system: auricular electroshock; test: Auricular electroshock (maximal electroshock death); type: in vivo, Male albino Swiss mice; conditions: oral in gum arabic 60 minutes before the electroshock, 10 mice
Protocol: Male albino Swiss mice weighing 22-24 g were used in this test. The electroshock conditions were the shock duration: 3 seconds; frequence: 100; pulse amplitude: 0.6 milliseconds, current intensity: 40 milliamperes. The compounds ST 505 and ST 512 suspended in gum arabic were orally administered 60 minutes before the electroshock.
The tests results which illustrate the number of animal preserved from death provoked by maximal electroshock are shown in the following Table 4.

[7] = test system: Sodium penicillin G-induced epilepsy; test: Sodium penicillin G-induced epilepsy (EEG); type: in vivo, Male albino Wistar rats; conditions: rats
Description: In this regard, see: Holmes, O. arid Lockton, J.W.: "Locally generated interictal epilectic spikes in the cortex cerebri of the rat". J.Physiol. (Lond.), 308 (1980) 75-76 P. Lokcton, J.W. and Holmes, O: "Site of penicillin-induced epilepsy in the cortex cerebri of the rat'. Brain research, 190 (1980) 301-304. Reichental, E. and Hocherman, S. : "The critical cortical area for development of penicillin-induced epilepsy". Electroenceph. Clin. Neurophysiol., 42 (1977) 248-251).
Male albino Wistar rats weighing 260-280 g were used in this test. Epilepsy was induced in these rats through the application of 5 mg of sodium penicillin G, power (Carlo Erba) on the left cortex cerebri. EEG recording (electroencephalograph OTE-Biomedica PF 14e) was carried out with cortical electrodes. Following a 15 minute recording period (basal), the animals were orally administered 250 mg/10 ml/kg of ST 505 suspended in 10% gum arabic. The controls were administered 10 ml/kg of 10% gum arabic.
The following parameters were taken into account: • a) numper of peaks of the EEG tracing in subsequent 15 minu te intervals, in an overall 5-hour recording period; and • b) number of fits with attendant average duration for each interval.
With regard to parameter a), the area under the curve was calculated wherein the number of peaks at different times and its accumulation function were plotted versus the observation time, thus obtaining five descriptive parameters: one which gives the measure (area) of the totale amount of epilepsy and four (shape indexes) describing the trends of the peaks during the time interval (five hours) under examination. These shape indexes were the percentile values at 50%, 60%, 70% and 800/0 of the accumulation function of the area versus time and represented, therefore, for each rat, a measure of the distribution of the epileptic fits in time.
The fits were studied with the same model as that utilized for the peaks.

[8] = test system: cardiazol-induced convulsions; test: Cardiazol-induced convulsions test in rats; type: in vivo, male albino Wistar rats; conditions: oral, 60 minutes before cardiazole 70 mg/10ml/kg i.p.
Protocol: The compound was also orally administered to male albino Wistar rats weighing 170-200 g (see table 3), at the dose equimolar to 100 mg 3-APS 60 minutes before cardiazole administration (70 mg/10ml/kg i.p.).

[9] = test system: FeCl3-induced epilepsy; test: FeCl3-induced epilepsy model (EEG); type: in vivo, Male albino Wistar rats; conditions: 500 mg/kg oral 45 minutes following FeCl3 injection; Mann-Whitney's U test, P<0.05
Protocol: Male albino Wistar rats weighing 250-300g were used. The animals, anaesthetized with Nembutal Na (30 mg/kg i.p.), were stereotactically injected in their left ventral hippocampus one microliter of 0.55 M FeCl3 solution (AP=-3.2; L=5.0.; H=5.5 Pelhgrino and Cushman, 1971). Ten minutes following injection, recording electrodes were implanted: in both ventral hippocampi, two millimiters below the FeCl3 injection site (bipolars), bilaterally on the frontoparietal cortex (monopolars). recording of cerebral bioelectric activity, carried out with an EEG OTE-Biomedica PF 14e recorder, began about one hour following FeCl3 injection and lasted more than three hours on end.The epilepsy degree was assessed by calculating for each animal the number and duration in seconds of the seizures at 15-minute intervals during the whole recording span both in the hyppocampus where the injection had been performed and in the contralateral cortex. Moreover, an "index of epileptization" was calculated as the mean product of seizure number times the duration of the seizures in each time interval. […]
The results thus obtained show the antiepileptic activity of the compound assessed by examining the whole phenomenon as it evolves in time via the measure (carried out with the trapezoidal rule) of the area under the curve wherein the average number of seizures and their duration is plotted versus time.

[10] = 200, 400 and 800 mg/10 ml/kg i.p., mice
[11] = 400 mg/10 ml/kg i.p., mice, versus control
[12] = oral, 100 mg/kg eq. 3 APS, 60 minutes before convulsant, mice (Table 3)
[13] = oral, 200 mg/kg eq. 3 APS, 60 minutes before convulsant, mice (Table 3)
[14] = oral, 200 mg/kg eq. 3-APS, versus control
[15] = oral, 100 mg/kg eq. 3-APS, versus control
[16] = oral, 100 mg/kg eq. 3 APS, 60 minutes before convulsant, mice (Table 2)
[17] = oral, 200 mg/kg eq. 3 APS, 60 minutes before convulsant, mice (Table 2)

NCCCS(=O)(=O)O [3-APS, 3-aminopropanesulfonic acid]
Strychnine % Death rate ([1]; 200 mg/kg i.p., mice): 90% | Strychnine Strong % Conv. ([1]; 200 mg/kg i.p., mice): 100% | Strychnine % Death rate ([1]; 400 mg/kg i.p., mice): 100% | Strychnine Strong % Conv. ([1]; 400 mg/kg i.p., mice): 100% | Strychnine % Death rate ([1]; 800 mg/kg i.p., mice): 90% | Strychnine Strong % Conv. ([1]; 800 mg/kg i.p., mice): 100% | strychnine-induced death [1, 10]: did not preserve animals | Cardiazol % Death rate ([2]; 200 mg/kg i.p., mice): 50% | Cardiazol Strong % Conv. ([2]; 200 mg/kg i.p., mice): 100% | Cardiazol % Death rate ([2]; 400 mg/kg i.p., mice): 90% | Cardiazol Strong % Conv. ([2]; 400 mg/kg i.p., mice): 100% | Cardiazol % Death rate ([2]; 800 mg/kg i.p., mice): 60% | Cardiazol Strong % Conv. ([2]; 800 mg/kg i.p., mice): 100% | cardiazol-induced death [2, 10]: did not preserve animals | Picrotoxin % Death rate ([3]; 200 mg/kg i.p., mice): 20% | Picrotoxin Strong % Conv. ([3]; 200 mg/kg i.p., mice): 100% | picrotoxin-induced first convulsion latency time [3, 11]: significantly increased | Picrotoxin % Death rate ([3]; 400 mg/kg i.p., mice): 30% | Picrotoxin Strong % Conv. ([3]; 400 mg/kg i.p., mice): 100% | Picrotoxin % Death rate ([3]; 800 mg/kg i.p., mice): 70% | Picrotoxin Strong % Conv. ([3]; 800 mg/kg i.p., mice): 30% | picrotoxin-induced death [3, 10]: did not preserve animals | Bicuculline % Death rate ([4]; 200 mg/kg i.p., mice): 100% | Bicuculline Strong % Conv. ([4]; 200 mg/kg i.p., mice): 100% | latency time of bicuculline-induced death [4, 11]: significantly increased | Bicuculline % Death rate ([4]; 400 mg/kg i.p., mice): 75% | Bicuculline Strong % Conv. ([4]; 400 mg/kg i.p., mice, 8 animals per group): 100* % | Bicuculline % Death rate ([4]; 800 mg/kg i.p., mice): 40% | Bicuculline Strong % Conv. ([4]; 800 mg/kg i.p., mice): 70% | bicuculline-induced first convulsion latency time ([4]; 800 mg/kg i.p., mice, versus control): significantly increased | bicuculline-induced death [4, 10]: did not preserve animals

NS(=O)(=O)CCCN=C(c1ccc(Cl)cc1)c1cc(F)ccc1O [ST 505, 3-[[a-(p-chlorophenyl)-5-fluoro-2-hydroxybenzylidene]amino]propanesulfonamide]
reduction of strychnine-induced death rate ([1]; oral, 100 mg/kg eq. 3-APS): 20% | Strychnine % Death rate [1, 12]: 30% | Strychnine Strong % Conv. [1, 12]: 60% | strychnine-induced convulsions and death ([1]; oral, 200 mg/kg eq. 3-APS): preserved all the animals | Strychnine % Death rate [1, 13]: 0% | Strychnine Strong % Conv. [1, 13]: 0% | tolerability [5]: well tolerated | cardiazole response ([2]; oral, 100 mg/kg eq. 3-APS): did not change | Cardiazol % Death rate [2, 12]: 90% | Cardiazol Strong % Conv. [2, 12]: 90% | latency time of cardiazole-induced first convulsion [2, 14]: increased | Cardiazol % Death rate [2, 13]: 40% | Cardiazol Strong % Conv. [2, 13]: 80% | picrotoxin response ([3]; oral, 100 mg/kg eq. 3-APS): did not change | Picrotoxin % Death rate [3, 12]: 90% | Picrotoxin Strong % Conv. [3, 12]: 100% | latency time of picrotoxin-induced first convulsion [3, 14]: increased | Picrotoxin % Death rate [3, 13]: 90% | Picrotoxin Strong % Conv. [3, 13]: 100% | death rate ([6]; dose 200 (unit not given)): 4/10 | death rate ([6]; dose 400 (unit not given)): 5/10 | area of the peaks ([7]; 250 mg/10 ml/kg oral, versus controls, Mann Whitney's U test): significantly decreased | Peak area ([7]; MEAN (S.E.), 250 mg/kg oral, 5-hour EEG recording): 52.9 (5.87)** | Ist shape index ([7]; MEAN (S.E.), 250 mg/kg oral, percentile 50% of accumulation function): 8.5 (1.0)** | 2nd shape index ([7]; MEAN (S.E.), 250 mg/kg oral, percentile 60% of accumulation function): 9.8 (1.2) | 3rd shape index ([7]; MEAN (S.E.), 250 mg/kg oral, percentile 70% of accumulation function): 11.8 (1.4) | 4th shape index ([7]; MEAN (S.E.), 250 mg/kg oral, percentile 80% of accumulation function): 13.8 (1.4) | Cardiazol % Death rate ([8]; RAT, 100 mg/kg eq. 3 APS): 60% | Cardiazol Strong % Conv. ([8]; RAT, 100 mg/kg eq. 3 APS): 60% | death rate reduction ([8]; Wistar rats, dose equimolar to 100 mg 3-APS): 30% | first convulsion latency time ([8]; Wistar rats, dose equimolar to 100 mg 3-APS, versus control): significant increase | area under the curve of average number of seizures and their duration versus time, compared with controls [9]: statistically significant difference | reduction of bicuculline-induced death rate ([4]; oral, 100 mg/kg eq. 3-APS): 20% | latency time of the bicuculline-induced death [4, 15]: significantly increased | latency time of the bicuculline-induced first convulsion [4, 15]: significantly increased | Bicuculline % Death rate [4, 12]: 80% | Bicuculline Strong % Conv. [4, 12]: 100% | latency time of bicuculline-induced death [4, 14]: increased | latency time of bicuculline-induced first convulsion [4, 14]: increased | Bicuculline % Death rate [4, 13]: 80% | Bicuculline Strong % Conv. [4, 13]: 100%

NS(=O)(=O)CCCN=C(c1ccccc1)c1ccccc1O [ST 512, 3-[(a-phenyl)-2-hydroxybenzylidene] amino propanesulfonamide]
Strychnine % Death rate [1, 16]: 80% | Strychnine Strong % Conv. [1, 16]: 90% | Strychnine % Death rate [1, 17]: 90% | Strychnine Strong % Conv. [1, 17]: 80% | tolerability [5]: well tolerated | Cardiazol % Death rate [2, 16]: 50% | Cardiazol Strong % Conv. [2, 16]: 100% | Cardiazol % Death rate [2, 17]: 60% | Cardiazol Strong % Conv. [2, 17]: 100% | reduction of cardiazol-induced death rate ([2]; oral, dose equimolar to 100 mg/10ml/kg of 3-APS, mice): 20% | reduction of cardiazol-induced death rate ([2]; oral, dose equimolar to 200 mg/10ml/kg of 3-APS, mice): 10% | Picrotoxin % Death rate [3, 16]: 40% | Picrotoxin Strong % Conv. [3, 16]: 100% | Picrotoxin % Death rate [3, 17]: 50% | Picrotoxin Strong % Conv. [3, 17]: 100% | death rate ([6]; dose 200 (unit not given)): 3/10 | death rate ([6]; dose 400 (unit not given)): 4/10 | Bicuculline % Death rate [4, 16]: 100% | Bicuculline Strong % Conv. [4, 16]: 90% | Bicuculline % Death rate [4, 17]: 100% | Bicuculline Strong % Conv. [4, 17]: 100%
